Assay [1] deals with human μ opioid receptor (Homo sapiens, UniProt P35372). Description: [35S]GTPγS binding, stimulation and inhibition of agonist-stimulated binding. The format is biochemical. As to conditions: for Functional description / Imax (% maximal inhibition): Mu Opioid Receptor; for Imax (% maximal inhibition): inhibition of binding stimulated by 200 nM DAMGO; for Emax: read-out: Emax (% maximal stimulation). On the technique in general: Binding of GTPγS marks nucleotide exchange on a G protein.

The target of assay [2] is human κ opioid receptor (Homo sapiens, UniProt P41145). The assay is described as above. The format is biochemical. The following applies: for Functional description: Kappa Opioid Receptor; for Emax: read-out: Emax (% maximal stimulation).

“Also recorded” adds a separate entry of the source.

The Emax is the maximal effect, on the per cent scale that the assay sets.

human μ opioid receptor, sequence (P35372 whole entry): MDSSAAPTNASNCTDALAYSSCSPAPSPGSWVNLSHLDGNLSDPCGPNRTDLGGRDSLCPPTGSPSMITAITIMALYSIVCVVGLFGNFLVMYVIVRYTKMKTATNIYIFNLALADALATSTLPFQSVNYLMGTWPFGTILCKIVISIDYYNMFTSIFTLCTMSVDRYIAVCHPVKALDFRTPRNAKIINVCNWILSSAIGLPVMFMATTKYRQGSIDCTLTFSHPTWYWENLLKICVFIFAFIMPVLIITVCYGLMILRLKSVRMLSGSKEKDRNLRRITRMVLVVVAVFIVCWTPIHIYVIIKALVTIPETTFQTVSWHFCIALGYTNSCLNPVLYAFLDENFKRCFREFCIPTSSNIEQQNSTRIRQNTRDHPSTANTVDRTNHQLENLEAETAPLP
human κ opioid receptor, sequence (P41145 whole entry): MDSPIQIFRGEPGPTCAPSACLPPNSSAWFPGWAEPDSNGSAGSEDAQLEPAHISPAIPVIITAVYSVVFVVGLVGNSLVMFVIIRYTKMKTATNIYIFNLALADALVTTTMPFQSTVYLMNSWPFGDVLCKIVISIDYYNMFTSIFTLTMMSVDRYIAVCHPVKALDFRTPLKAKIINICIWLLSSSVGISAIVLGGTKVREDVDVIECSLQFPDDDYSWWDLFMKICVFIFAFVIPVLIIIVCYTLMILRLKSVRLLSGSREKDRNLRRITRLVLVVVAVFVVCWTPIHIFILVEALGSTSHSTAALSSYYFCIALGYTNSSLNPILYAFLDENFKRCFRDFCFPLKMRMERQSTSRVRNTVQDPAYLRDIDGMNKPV

In the case of `C[C@H]1C2Cc3ccc(C(=O)NCCc4ccc(-c5cccnc5)cc4)cc3[C@@]1(C)CCN2CC1CC1` [Compound 5], in assay [1], the Functional description result is “partial agonist”, the “Imax (% maximal inhibition)” value was 83 ± 2.9 % maximal inhibition and the Emax turned out to be 28 ± 2.2%. Besides, in assay [2], the Functional description result is “agonist” and the Emax is 52 ± 0.55%.
On the same counts, the results for `C[C@H]1C2Cc3ccc(C(=O)NCCc4ccc(-c5ccccn5)cc4)cc3[C@@]1(C)CCN2CC1CC1` [Compound 6] are “partial agonist”, 87 ± 3.1 % maximal inhibition, 31 ± 1.8%, “agonist” and 50 ± 2.6%.
`CC1C2Cc3ccc(C(=O)NCCc4ccc(-c5ccccc5)cc4)cc3C1(C)CCN2CC1CC1` (racemic) [Compound 1, N-(2-[1,1′-biphenyl]-4-ylethyl)-3-(cyclopropylmethyl)-1,2,3,4,5,6-hexahydro-6,11-dimethyl-2,6-methano-3-benzazocine-8-carboxamide, reference compound]: in assay [2], the Functional description entry is recorded as “agonist” and the Emax was found to be 76 ± 6.7%.
Turning to `C[C@H]1C2Cc3ccc(C(=O)NCCc4ccc(-c5ccncc5)cc4)cc3[C@@]1(C)CCN2CC1CC1` [Compound 4], in assay [1], the Functional description result is “partial agonist”, the “Imax (% maximal inhibition)” value came out at 79 ± 3.3 % maximal inhibition and the Emax was 33 ± 0.68%. In assay [2], the Functional description entry is “agonist” and the Emax turned out to be 64 ± 5.1%.
Take `C[C@H]1C2Cc3ccc(C(N)=O)cc3[C@@]1(C)CCN2CC1CC1` [Compound 2, 8-carboxamidocyclazocine, reference compound]: in assay [1], the Functional description entry is given as “functional partial agonists; also recorded: partial agonist”, the “Imax (% maximal inhibition)” value was determined as 76 ± 1.1 % maximal inhibition and the Emax turned out to be 24 ± 1.9%. Moreover, in assay [2], the Functional description entry is recorded as “agonist” and the Emax was 87 ± 6.5%.
On the same counts, the results for `C[C@H]1C2Cc3ccc(C(=O)NCCc4ccc(-c5ccccc5)cn4)cc3[C@@]1(C)CCN2CC1CC1` [Compound 8] are “partial agonist”, 53 ± 5.4 % maximal inhibition, 25 ± 1.1%, “agonist” and 64 ± 2.4%.
The matching figures for `C[C@H]1C2Cc3ccc(C(=O)NCCc4ccc(-c5ccccc5)nc4)cc3[C@@]1(C)CCN2CC1CC1` [Compound 7]: “partial agonist”, 87 ± 1.2 % maximal inhibition, 30 ± 2.3%, “agonist” and 52 ± 4.8%.

For the origin of these results see article PMC3602279 (Bioorganic & medicinal chemistry letters, 2013).
